In this assay the test system is pAMPK. The assay can be described thus: pAMPK immunostaining chemiluminescence assay in Beas2B cells. Format: cell-based. Conditions: Homo sapiens, BEAS-2B, 18 h, DMEM no glucose media, compounds 3-34, 36-44, 47-60 tested as HCl salts, read-out: efficacy (minimal compound concentration needed to increase pAMPK by 30%). On the procedure:
Beas2B cells were plated in 384 white nunc plate (4000 cells per well) for overnight. Compounds were serially diluted in DMEM no glucose media using the liquid handler. Cells were washed once using Biotek EL406 before compound addition for additional 18 hours. Cells were washed and fixed with PFA before immunostained with pAMPK primary antibody and anti-Rabbit HRP secondary antibody. Finally, 25 μl of ECL reagent will be added to cells, and chemical luminescence signal will be counted using plate reader. Compounds efficacies (μM) were determined by the minimal compound concentration needed to increase pAMPK by 30%. Activity: “+” equals >10 μM; “++” equals between ≤10 μM and >1 μM; and “+++” equals ≤1 μM.

Bounds are passed on as bounds.

Turning to `Cc1ccccc1CN(CC(O)COc1ccc(C(F)(F)F)cc1)C(=O)c1ccnn1C` (stereo not drawn) [compound 152], the EC (30% increase) lay within 1 to 10 µM. In the case of `Cn1cncc1C(=O)N(Cc1ccccc1F)CC(O)COc1ccc(C(F)(F)F)cc1` (stereo not drawn) [compound 153], the EC (30% increase) is 1 to 10 µM. Under `Cc1ccccc1CN(CCOc1ccc(C(F)(F)F)cc1)Cc1cccnc1` [compound 154] stands ≤ 1 µM; under `FC(F)(F)c1ccc(OCCN(Cc2cccnc2)Cc2ccccc2Cl)cc1` [compound 155], ≤ 1 µM; under `Fc1ccccc1CN(CCOc1ccc(C(F)(F)F)cc1)Cc1cccnc1` [compound 156], ≤ 1 µM. For `Cn1ccnc1CN(CCOc1ccc(C(F)(F)F)cc1)Cc1ccccc1Cl` [compound 157] the value was ≤ 1 µM; for `Cn1ccnc1CN(CCOc1ccc(C(F)(F)F)cc1)Cc1ccccc1F` [compound 158], ≤ 1 µM; for `Cn1cncc1CN(CCOc1ccc(C(F)(F)F)cc1)Cc1ccccc1Cl` [compound 159], ≤ 1 µM. Under `Cn1cncc1CN(CCOc1ccc(C(F)(F)F)cc1)Cc1ccccc1F` [compound 160] stands ≤ 1 µM; under `Cn1cncc1C(=O)N(CC(=O)COc1ccc(C(F)(F)F)cc1)Cc1ccccc1Cl` [compound 161], ≤ 1 µM. Take `Cc1ccccc1CN(CC(O)COc1ccc(C(F)(F)F)cc1)C(C)c1nccn1C` (stereo not drawn) [compound 162]: the EC (30% increase) was > 10 µM. For `[2H]C(C)(c1cccnc1)N(Cc1ccccc1Cl)CC(O)COc1ccc(C(F)(F)F)cc1` (stereo not drawn) [compound 163] the value was > 10 µM; for `FC(COc1ccc(C(F)(F)F)cc1)CN(Cc1cccnc1)Cc1ccccc1Cl` (stereo not drawn) [compound 164], ≤ 1 µM; for `Cc1ccccc1CN(Cc1cccnc1)CC(F)COc1ccc(C(F)(F)F)cc1` (stereo not drawn) [compound 165], ≤ 1 µM. Turning to `Cn1cncc1C(=O)N(CCCOc1cnc(C(F)(F)F)nc1)Cc1ccccc1Cl` [compound 168], the EC (30% increase) is > 10 µM. For the compound `Cc1ccccc1CN(CCCOc1cnc(C(F)(F)F)nc1)Cc1cccnc1` [compound 169], the EC (30% increase) was ≤ 1 µM.

Consider `Cc1ccccc1CN(CCOc1ccc(C(F)(F)F)cc1)Cc1cncn1C` [compound 171], for which the EC (30% increase) was in the range of 1 to 10 µM. Under `FC(F)(F)c1ccc(OCCN(Cc2cncs2)Cc2ccccc2Cl)cc1` [compound 172] stands ≤ 1 µM. Turning to `Fc1ccccc1CN(CCOc1ccc(C(F)(F)F)cc1)Cc1cncs1` [compound 173], the EC (30% increase) is ≤ 1 µM. In the case of `FC(F)(F)c1ccc(OCCCN(Cc2cccnc2)Cc2ccccc2C(F)(F)F)cc1` [compound 174], the EC (30% increase) is ≤ 1 µM.

As to `Cn1ccnc1C1Cc2ccccc2CN1CCCOc1ccc(C(F)(F)F)cc1` (stereo not drawn) [compound 175], the EC (30% increase) is ≤ 1 µM. Under `Cc1ccccc1CN(CC(O)COc1ccc(C(F)(F)F)cc1)C(C)c1cncs1` (stereo not drawn) [compound 176] stands 1 to 10 µM; under `[2H]C(C)(c1cccnc1)N(Cc1ccccc1C)CC(O)COc1ccc(C(F)(F)F)cc1` (stereo not drawn) [compound 177], > 10 µM. Under `CC1(c2cccnc2)Cc2ccccc2CN1CC(O)COc1ccc(C(F)(F)F)cc1` (stereo not drawn) [compound 178] stands ≤ 1 µM; under `Cc1ccccc1CN(Cc1cccnn1)CC(C)(C)COc1ccc(C(F)(F)F)cc1` [compound 181], ≤ 1 µM. In the case of `Cc1ccccc1CN(CCCOc1ccc(C(F)(F)F)cc1)Cc1ccnnc1` [compound 182], the EC (30% increase) was ≤ 1 µM. As to `Cc1ccccc1CN(CCCOc1ccc(C(F)(F)F)cc1)Cc1cccnn1` [compound 183], the EC (30% increase) was ≤ 1 µM. For `CC(C)(COc1ccc(C(F)(F)F)cc1)CN(Cc1cccnc1)Cc1cccnc1` [compound 184] the value was ≤ 1 µM.

Regarding `CC(C)(COc1ccc(C(F)(F)F)cc1)CN(Cc1cccnc1)Cc1ccccc1F` [compound 185], the EC (30% increase) is ≤ 1 µM. For `CC(C)(COc1ccc(C(F)(F)F)cc1)CN(Cc1cccnc1)Cc1ccccc1Cl` [compound 186] the value was ≤ 1 µM. For `COC(=O)C1c2ccccc2CCN1CCCOc1ccc(C(F)(F)F)cc1` (stereo not drawn) [compound 187] the value was ≤ 1 µM. Under `OCC1c2ccccc2CCN1CCCOc1ccc(C(F)(F)F)cc1` (stereo not drawn) [compound 188] stands ≤ 1 µM. Turning to `Cc1ccc2c(c1)CC(c1nccn1C)N(CC(O)COc1ccc(C(F)(F)F)cc1)C2` (stereo not drawn) [compound 189], the EC (30% increase) is > 10 µM. As for `Cc1ccccc1CN(Cc1cccnc1)CC(C)(C)COc1cnc(C(F)(F)F)nc1` [compound 190], the EC (30% increase) fell in the range of 1 to 10 µM.

For `Cc1ccccc1CN(Cc1cccnc1)CC(C)COc1ccc(C(F)(F)F)cc1` (stereo not drawn) [compound 191], the EC (30% increase) is ≤ 1 µM. As to `Cc1ccccc1CN(CC(C)(C)COc1ccc(C(F)(F)F)cc1)C(=O)c1cncn1C` [compound 192], the EC (30% increase) was ≤ 1 µM. Take `Cn1cncc1C(=O)N(Cc1cccnc1)CC(C)(C)COc1ccc(C(F)(F)F)cc1` [compound 193]: the EC (30% increase) was ≤ 1 µM. Under `Cn1cncc1C(=O)N(Cc1ccccc1Cl)CC(C)(C)COc1ccc(C(F)(F)F)cc1` [compound 194] stands ≤ 1 µM; under `Cc1ccccc1CN(CC(C)COc1ccc(C(F)(F)F)cc1)C(=O)c1cncn1C` (stereo not drawn) [compound 195], ≤ 1 µM; under `CC(C)(COc1cnc(C(F)(F)F)nc1)CN(Cc1cccnc1)Cc1ccccc1C(F)(F)F` [compound 196], 1 to 10 µM. As for `CC(C)(COc1ccc(C(F)(F)F)cc1)CN(Cc1cccnc1)Cc1ccccc1C(F)(F)F` [compound 197], the EC (30% increase) is ≤ 1 µM. For `Cc1ccccc1CN(CC(O)COc1ccc(C(F)(F)F)cc1)[C@@H](c1cccnc1)C(F)(F)F` (stereo partly drawn) [compound 198] the value was > 10 µM; for `Cn1ccnc1C1c2ccccc2CCN1CCCOc1ccc(C(F)(F)F)cc1` (stereo not drawn) [compound 199], 1 to 10 µM; for `Cc1ccccc1CN(Cc1cccnc1)CC(C)(O)COc1ccc(C(F)(F)F)cc1` (stereo not drawn) [compound 200], ≤ 1 µM.

For the compound `Cn1cncc1C(=O)N(Cc1ccccc1Cl)CC(C)(O)COc1ccc(C(F)(F)F)cc1` (stereo not drawn) [compound 201], the EC (30% increase) is 1 to 10 µM.

The record behind these values is patent US12428378B2, “Methods and materials for increasing level of phosphorylated AMPK protein” (University of Pittsburgh—Of the Commonwealth System of …, priority 2019, dated 2025).
